The subject of data set [1] is Suid alphaherpesvirus 1. The experiment in a line: Antiviral activity against Suid alphaherpesvirus 1 infected in pig PK-15 cells assessed as inhibition of replication pretreated with compound for 2 hrs followed by viral infection and measured after 48 hrs. In kind it is functional, organism-based. The note with it: Suid alphaherpesvirus 1, PK-15.
The test system of data set [2] is Suid alphaherpesvirus 1. The data set is described as follows: Antiviral activity against Suid alphaherpesvirus 1 infected in pig PK-15 cells assessed as inhibition of viral growth. In kind it is functional. The settings on record: Suid alphaherpesvirus 1, in Sus scrofa.
Data set [3] has as its system Suid alphaherpesvirus 1. The experiment in a line: Antiviral activity against Suid alphaherpesvirus 1 infected in pig PK-15 cells assessed as inhibition of replication at 1 uM pretreated with compound for 2 hrs followed by viral infection and measured after 48 hrs (reference value: 99.6%). It counts as functional. The settings on record: Suid alphaherpesvirus 1, PK-15, in Sus scrofa, time 50 hrs.

Data set [4] deals with Suid alphaherpesvirus 1. The experiment in a line: Antiviral activity against Suid alphaherpesvirus 1 infected in pig PK-15 cells assessed as inhibition of viral replication. The settings on record: Suid alphaherpesvirus 1, PK-15. It counts as functional, organism-based.
A short description of data set [5]: Cytotoxicity against pig PK-15 cells. In kind it is toxicity, cell-based, Sus scrofa.
Data set [6] relates to Suid alphaherpesvirus 1. The data set is described as follows: Antiviral activity against Suid alphaherpesvirus 1. In kind it is functional, organism-based.
The test system of data set [7] is Suid alphaherpesvirus 1. The data set is described as follows: Antiviral activity against Suid alphaherpesvirus 1 infected in pig PK-15 cells infected for 1 hr followed by compound addition and measured after 48 hrs. It counts as functional, organism-based. The settings on record: Suid alphaherpesvirus 1, PK-15.
A short description of data set [8]: Cytotoxicity against pig PK-15 cells assessed as cell viability incubated for 72 hrs by CCK-8 assay. In kind it is toxicity, cell-based, Sus scrofa.
Data set [9] relates to Suid alphaherpesvirus 1. The data set is described as follows: Antiviral activity against Suid alphaherpesvirus 1 infected in pig PK-15 cells. In kind it is functional, organism-based. The note with it: Suid alphaherpesvirus 1, PK-15.
Data set [10] has as its system Suid alphaherpesvirus 1. The experiment in a line: Antiviral activity against Suid alphaherpesvirus 1 infected in pig PK-15 cells assessed as inhibition of replication at >200 nM pretreated with compound for 2 hrs followed by viral infection and measured after 48 hrs. In kind it is functional. The note with it: time 50 hrs.
Data set [11] deals with Suid alphaherpesvirus 1. The experiment in a line: Antiviral activity against Suid alphaherpesvirus 1 infected in pig PK-15 cells assessed as inhibition of viral replication pretreated with compound for 2 hrs followed by viral infection and measured after 24 hrs by ELISA analysis. In kind it is functional, organism-based. The settings on record: Suid alphaherpesvirus 1, PK-15. (In general: An ELISA detects its analyte on a solid surface through an enzyme-linked reagent.)

Data set [12] is described as follows: Half life in male Kunming mouse at 30 mg/kg, ip measured upto 8 hrs by LC-MS/MS analysis. It counts as ADME, organism-based. The settings on record: in vivo.
Data set [13] in a line: Tmax in male Kunming mouse at 30 mg/kg, ip measured up to 8 hrs by LC-MS/MS analysis. In kind it is ADME, organism-based. The settings on record: in vivo.
Data set [14] can be described thus: Cmax in male Kunming mouse at 30 mg/kg, ip measured up to 8 hrs by LC-MS/MS analysis. It counts as ADME, organism-based. The settings on record: in vivo.
A short description of data set [15]: AUC (0 to t) in male Kunming mouse at 30 mg/kg, ip measured up to 8 hrs by LC-MS/MS analysis. It counts as ADME, organism-based. The note with it: in vivo.
Data set [16] is described as follows: AUC (0 to infinity) in male Kunming mouse at 30 mg/kg, ip measured up to 8 hrs by LC-MS/MS analysis. The note with it: in vivo. It counts as ADME, organism-based.
The nature of data set [17]: MRT (0 to t) in male Kunming mouse at 30 mg/kg, ip measured up to 8 hrs by LC-MS/MS analysis. In kind it is ADME, organism-based. The settings on record: in vivo.
The nature of data set [18]: MRT (0 to infinity) in male Kunming mouse at 30 mg/kg, ip measured up to 8 hrs by LC-MS/MS analysis. It counts as ADME, organism-based. The settings on record: in vivo.
Data set [19] concerns Suid alphaherpesvirus 1. The data set is described as follows: Antiviral activity against Suid alphaherpesvirus 1 infected in Kunming mouse assessed as survival at 30 mg/kg, ip measured at 7.3 days. It counts as functional, organism-based. The note with it: time 7.3 day.
In data set [20] the test system is Suid alphaherpesvirus 1. The data set is described as follows: Antiviral activity against Suid alphaherpesvirus 1 infected in Kunming mouse assessed as reduction in viral copy numbers in blood at 30 mg/kg, ip measured on day 6 by qPCR analysis. In kind it is functional, organism-based. The settings on record: time 6.0 day. A general note: In qPCR the cycle at which signal appears reflects the starting amount.

Data set [21] has as its system Suid alphaherpesvirus 1. The experiment in a line: Antiviral activity against Suid alphaherpesvirus 1 infected in Kunming mouse assessed as reduction in viral copy numbers in brain at 30 mg/kg, ip measured on day 6 by qPCR analysis. The note with it: time 6 day. It counts as functional.
Data set [22] concerns Suid alphaherpesvirus 1. The experiment in a line: Antiviral activity against Suid alphaherpesvirus 1 infected in Kunming mouse assessed as inhibition of viral copy numbers in brain at 30 mg/kg, ip measured on day 6 by qPCR analysis. It counts as functional. The note with it: Suid alphaherpesvirus 1, 144 h, time 6 day.

Structures are written as SMILES. Converted amounts (≈) assume the structure as drawn. The source made the active and inactive calls. No cut-off for these calls is given here.

Experimental findings from ChEMBL document CHEMBL6109115, “Rapid discovery of pseudorabies virus inhibitors repurposed from the antimicrobial agent ciprofloxacin” (Eur J Med Chem, 2025) are described below.

By EC50 is commonly meant the concentration giving half of the maximal effect. In general, inhibition refers to the relative decrease from the control value, in per cent. The term CC50 denotes the concentration that lowers cell viability or growth by half. Usually half-life stands for the time in which the quantity being followed falls by half. A high value points to slow loss. By Tmax is commonly meant the time from dosing to the highest level. Usually Cmax stands for the peak of the concentration-time curve. For orientation: AUC(0-t) means exposure summed from dosing to a finite time, without extrapolation to infinity. High values mean high exposure, low ones low exposure. The term AUC(0-inf) denotes total exposure, with the tail of the curve extrapolated. In general, MRT last refers to the average time that molecules of a dose stay in the body. By MRT inf is commonly meant a mean duration of stay, worked out from the concentration-time curve. Broadly, the inhibition in vivo is the drop in the measured response relative to a control, in per cent.

With `CCn1cc(C(=O)NCc2cccc(Cl)c2)c(=O)c2cc(F)c(N3CCNCC3)cc21`, the EC50 in [1] came out at 0.85 nM. Also, the MIC80 in data set [2] amounted to 8 nM (≈ 3.54 ng/mL).
In the same order, the values of `O=C(NCc1ccc(Cl)c(Cl)c1)c1cn(C2CC2)c2cc(N3CCNCC3)c(F)cc2c1=O` are 0.25 nM and 8 nM (≈ 3.92 ng/mL).
As for `CCn1cc(C(=O)O)c(=O)c2cc(F)c(N3CCNCC3)cc21` [NORFLOXACIN], the inhibition at 1 µM in data set [3] came to 66%.
For `O=C(NCc1cccc(Cl)c1)c1cn(C2CC2)c2cc(N3CCNCC3)c(F)cc2c1=O`, the EC50 in [1] turned out to be 10.2 nM. Besides, in data set [2], the MIC80 worked out at 40 nM (≈ 18.2 ng/mL).
`CN(C)CCNC(=O)c1cn(C)c2ccc(CN3CCOCC3)cc2c1=O`: the half-maximal effective concentration (EC50) in data set [4] was 0.014 nM. The CC50 in data set [5] is 344000 nM.
Regarding `Cn1cc(C(=O)NCc2ccc(Cl)cc2)c(=O)c2cc(CN3CCOCC3)ccc21`, the EC50 in [6] worked out at 0.1 nM; in data set [1] it was 1.45 nM. In data set [5], this molecule returned a half-maximal cytotoxic concentration (CC50) of 45200 nM. The MIC80 in data set [2] stood at 0.32 nM (≈ 0.136 ng/mL).
Molecule `CCCCCC/C=C\CCCCCCCc1cccc(O)c1C(=O)O` [GINGKOLIC ACID] displayed an EC50 in data set [6] of 3400 nM.
For `O=C(O)c1cn(C2CC2)c2cc(N3CCNCC3)c(F)cc2c1=O` [CIPROFLOXACIN], the inhibition at 1 µM in data set [3] was 65%.
Consider `Cc1cc(O)c2c(c1)C(=O)c1cc(O)cc(O)c1C2=O` [EMODIN], for which the 50% effective concentration (EC50) in data set [7] came out at 470 nM.
As to `O=C(NCc1ccc(Cl)cc1)c1cn(C2CC2)c2cc(N3CCNCC3)c(F)cc2c1=O`, the concentration giving a half-maximal response (EC50) in data set [1] is 2.21 nM. Besides, in [8], the half-maximal cytotoxic concentration (CC50) at 72 h came out at 9300 nM. Moreover, the MIC80 in data set [2] is 200 nM (≈ 91 ng/mL).
`Oc1cc(O)cc(/C=C/c2ccc(O)c(O)c2)c1` [PICEATANNOL]: the EC50 in data set [9] is 126 nM.
`Oc1ccc(O)cc1` [HYDROQUINONE]: the EC50 in data set [6] is 8300 nM.
Take `O=C(NCc1cc(Cl)ccc1F)c1cn(C2CC2)c2cc(N3CCNCC3)c(F)cc2c1=O`: the EC50 in data set [1] came to 0.21 nM. The CC50 at 72 h in data set [8] is over 100000 nM. In addition, in data set [2], the MIC80 turned out to be 1.6 nM (≈ 0.757 ng/mL). In data set [10], the “inhibition (INH)” value is given as “<=99.5%”.
Take `O=C(NCc1cc(Cl)ccc1F)c1cn(Cc2ccccc2)c2cc(N3CCNCC3)c(F)cc2c1=O`: the half-maximal effective concentration (EC50) in data set [1] worked out at 2.11 nM. For the same molecule, the MIC80 in [2] amounted to 40 nM (≈ 20.9 ng/mL).
For `O=C(NCc1cc(Cl)ccn1)c1cn(C2CC2)c2cc(N3CCNCC3)c(F)cc2c1=O`, in data set [1], the EC50 came to 0.39 nM. Moreover, the MIC80 in data set [2] turned out to be 8 nM (≈ 3.65 ng/mL).
Consider `O=C(NCc1cc(Cl)ccc1Cl)c1cn(C2CC2)c2cc(N3CCNCC3)c(F)cc2c1=O`, for which the half-maximal effective concentration (EC50) in [1] amounted to 0.71 nM. The MIC80 in data set [2] came to 8 nM (≈ 3.92 ng/mL).
As for `C[C@]12CC[C@H](O)C[C@H]1CC[C@@H]1[C@@H]2CC[C@]2(C)[C@@H](c3ccc(=O)oc3)CC[C@]12O` [BUFALIN], the concentration giving a half-maximal response (EC50) in [11] was 33 nM.
Consider `O=C(NCc1cc(Cl)ccc1F)c1cn(-c2ccccc2)c2cc(N3CCNCC3)c(F)cc2c1=O`, for which, in data set [1], the EC50 is 0.29 nM. The MIC80 in [2] was 1.6 nM (≈ 0.814 ng/mL). In addition, in [10], the “inhibition (INH)” value is “<=99.5%”. This molecule also gave a half-life in data set [12] of 3.24 h. Further, in data set [13], the Tmax is 1.5 h. Further, the highest concentration (Cmax) in [14] came to 342 ng/mL. Moreover, the AUC(0-t) at 8 h in [15] turned out to be 1020 ng·h/mL. The area under the curve AUC(0-inf) in data set [16] was 1330 ng·h/mL. In data set [17], this molecule gave an MRT last at 8 h of 3.15 h. The same molecule came in with an MRT inf in data set [18] of 5.34 h. The outcome in data set [19] and in data set [20] was Active. For the same molecule, in data set [21], the Activity amounted to 280 g⁻¹. Also, the inhibition in vivo at 30 mg/kg in data set [22] was over 99%.
